# Measurements: patent US7794965B2, “Method of identifying modulators of PP2A methylase” (Signum Biosciences, Inc., priority 2002, dated 2010)
# Like-named read-outs stand apart in the source and are kept apart here.
# Legend:
# tau = details: for CP13 tau phosphorylation, ratio methionine-enriched / not enriched / PHF1 tau phosphorylation, ratio methionine-enriched / not enriched / TG5 total tau, ratio methionine-enriched / not enriched: B6, B12
# Description: (§1) Male C57BL/J6 mice were obtained from the Jackson Laboratories (Bar Harbor, Me.) at 4 weeks of age. Mice were fed on a vitamin sufficient or a vitamin deficient diet for 9 weeks. All of the vitamin-sufficient diets contained folate, vitamin B6, and vitamin B12. All of the vitamin deficient diets lacked these vitamins. […] Another group was fed a vitamin deficient diet that contained basal levels of methionine (Harlan Teklad TD00428). The same was true for mice on the vitamin-sufficient diet. One group was fed a diet enriched for methionine (Harlan Teklad TD98002) and another was fed standard rodent chow 5001 c (Lab Diets). The mice were allowed free access to both food and water.
# Mice brains were homogenized in 10 times volume/weight buffer containing:
# 62.5 mM Tris-HCl, pH 6.8, 10% (w/v) glycerol, 5% (v/v) [3-mercaptoethanol, 2.3% (w/v) SDS, 100 nM okadaic acid (OA), 1 mM phenylmethylsulfonyl fluoride, and 1 mM EDTA. This is a modified version of the buffer reported by Planel et al. [Planel, 2001 #54]. The homogenates were boiled for 5 mins and then centrifuged for 15 mins at 4° C. in a Fisher micro-centrifuge model 235A. The supernatant was then diluted 1:2 in SDS-sample buffer and loaded on a 12.5% percent SDS-PAGE gel. Gels were run at 200 V, transferred onto PVDF membrane at 100 V for 1 hr. Each membrane was blocked for 1 hr in 5% milk, followed by overnight incubation in antibodies, CP13 (1:200) and PHF1 (1:500) which recognize phosphoserine 202 and phosphoserine 396/404 respectively [Greenberg, 1992 #55; Otvos, 1994 #59] and TG5 (1:1000), which recognizes a phosphorylation independent epitope on tau [Jicha, 1997 #56]. The following day, membranes were washed 5× for 5 mins each with TBS containing tween (TBST) and then incubated with goat anti-mouse IgG horseradish peroxidase coupled secondary antibody, diluted 1:25,000 in 5% milk prepared in TBS, for 1 hr. Following the secondary antibody incubation, the membranes were washed 5× for 10 mins in TBST and developed with ECL plus (Amersham). Signal intensities of X-ray film exposures for each membrane were quantified by scanning densitometry using NIH Image.
# Mice were fed on diets containing or deficient in folate, vitamin B6, and vitamin B12 as described above. Tau phosphorylation was determined in the mice by SDS-PAGE and western blotting using the procedures described above. The western blots were probed using three different tau-specific monoclonal antibodies, as discussed above.
# (§2) The effects of methionine enrichment were determined either in the presence or absence of a deficiency for folate, vitamin B6, and vitamin B12.
# Ratios are given for values obtained from mice fed diets enriched with methionine divided by values obtained from mice fed diets not enriched for methionine.
# Feeding and assays were performed as described above. Hcy, total plasma homocysteine; SAM and SAH values measured in brain homogenates. CP13 and PHF1, tau phosphorylation and TG5, total tau (see data below) body, brain, and heart weights (see data in examples above).
# [1] = for Hcy, total plasma homocysteine, ratio methionine-enriched / not enriched / SAH in brain homogenates, ratio methionine-enriched / not enriched / SAM in brain homogenates, ratio methionine-enriched / not enriched: B6, B12
# Description: as §1
# SAM and SAH levels were measured by high performance liquid chromatography (HPLC) according to the method described by Fu et al. in “Interrelations between plasma homocysteine and intracellular S-adenosylhomocysteine;” Biochem Biophys Res Commun 271: 47-53 (2000), which is incorporated herein by reference in its entirety particularly in parts pertinent to HPLC assays of SAM and SAH.
# Samples of mouse brain were weighed and homogenized in two times weight/volume of 0.5 HCIO4. Samples were centrifuged at 12,500 g for 5 min and the supernatant was filtered through a 0.22 mm membrane. Aliquots of 25 ml were injected and run on a hypersil […] particle size, c18 (ODS), 250×4.6 mm (Phenomenex) column with an isocratic elution at 1.3 ml/min. The mobile phase consisted of 0.10 mM sodium acetate, 2.4 mM heptanesulfonic acid, 4.2% acetonitrile, and 50 mM sodium perchlorate. The pH was adjusted to 3.5 with 70% perchloric acid.
# Standards were run at five different concentrations: 10,000, 5,000, 2,000, 1,000, and 500 pM for SAM, and 10,000, 5,000, 1,000, 100, and 50 μM for SAH. Linear curves, obtained from the SAM and SAH standards, were used to calculate concentrations of SAM and SAH in the brain homogenates.
# Homocysteine was measured by HPLC in serum samples reduced with tri-n-butylphosphine.
# Serum was prepared from whole blood, which was allowed to clot for 30 min on ice and then centrifuged. Samples were aliquoted, snap frozen and stored at −80° C. for analysis. For analysis, 150 ml of serum was thawed and reduced in a mixture containing 50 ml of 0.1 M potassium borate, 2 mM EDTA, pH 9.5, 0.2 mM mercaptopropionylglycine, and 20 ml of 100 ml/I of tri-n-butylphosphine in dimethylformamide. The reduction was allowed to proceed for 30 min on ice after which samples were mixed with 125 ml of 0.6 M perchloric acid containing 1 mM EDTA and allowed to react at room temperature for 10 min, and then centrifuged at 15500 g for 10 min. 100 ml was withdrawn from the middle of the supernatant and mixed with 200 ml of 0.2M potassium borate, pH 10.5, containing 5 mM EDTA. 100 ml of 1.0 gm Ammonium 7-fluorobenzo-2-oxa-1,3-diazole-4-sulphonate/I.OL 0.2M potassium borate, pH 9.5, was added and the mixture incubated at 60° C. for 60 min. Samples were cooled and then analyzed using HPLC. 10 ml of derivatized sample was used for each injection. Buffer A (0.1 M acetate buffer, pH 4.0, containing 20 ml/I methanol) and Buffer B (0.1 M acetate buffer, pH 6.0, containing 50 ml/I methanol) were run at a flow rate of 1.0 ml/min from A to B over 12.5 min then 2.5 min of B, a 3.0 min gradient back to A and 2.0 min A before next injection. A standard was also analyzed to quantify values of homocysteine. Mercaptopropionylglycine was added to the reduction buffer as an internal standard to monitor any potential loss during reduction.
# Mice were fed on diets containing or deficient in folate, vitamin B6 and B12 as set out above. SAM, SAH and Hcy were determined as described above.
# as §2
# [2] = system: PP2A methylation in SH-SY5Y neuroblastoma cells; test: PP2A methylation in cultured SH-SY5Y cells, western blotting with antibodies 6A3 (total) and 4D9 (methylated); format: cell-based; details: homocysteine 0, 25, 50, 100, and 200 mM, three hours
# Description: SH-SY5Y cells were propagated in a 1:1 mixture of Eagle's Minimum Essential Medium and Ham's F12 medium supplemented with 10% Fetal Bovine Serum, Penicillin (100 units/ml)/Streptomycin ([…]) and 2 mM L-Glutamine. The flasks were incubated at 37° C. (5% CO2). Media was changed every 4-6 days until the cells were confluent. On confluency, cells were treated with 25-200 mM homocysteine for 3 hours. […] Each membrane was blocked for 1 hr in 5% milk, followed by an hour incubation in antibodies, 6A3 (1:50) and 4D9 (1:25) which recognize total and methylated PP2A, respectively.
# Inhibition of PP2A methylation by homocysteine was determined in cultured cells. Total PP2A and methylated PP2A was determined by western blotting in SH-SY5Y neuroblastoma cells. Homocysteine was added to confluent SH-SY5Y cells to concentrations of […]. Three hours after adding homocysteine the cells were harvested into cold PBS, mixed with SDS sample buffer, and then analyzed by SDS-PAGE and western blotting. To determine total PP2A, the blots were probed with monoclonal antibody 6A3, which recognizes total PP2A. To determine methylated PP2A the blots were probed with monoclonal antibody 4D9, which recognizes methylated but not unmethylated PP2A.
# cultured human neurons = details: Merrick, 1997; cited from earlier work
# [3] = biological target: PP2A phosphatase activity (Homo sapiens, UniProt P67775); details: cited from earlier work
# methylation of PP2A = methylation of PP2A (Homo sapiens, UniProt P67775); details: cited from earlier work
# [4] = excess methionine added to vitamin-deficient diets
# Chain of PP2A phosphatase activity (P67775 whole entry): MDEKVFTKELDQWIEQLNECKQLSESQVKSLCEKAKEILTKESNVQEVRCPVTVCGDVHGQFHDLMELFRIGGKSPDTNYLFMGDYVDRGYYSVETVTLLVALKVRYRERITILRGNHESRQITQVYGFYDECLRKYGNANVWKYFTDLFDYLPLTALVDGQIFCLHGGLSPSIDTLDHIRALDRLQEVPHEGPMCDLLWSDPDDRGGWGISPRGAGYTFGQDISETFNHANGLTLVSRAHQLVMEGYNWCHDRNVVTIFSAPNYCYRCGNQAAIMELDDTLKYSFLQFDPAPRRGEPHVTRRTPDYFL
# Chain of methylation of PP2A (P67775 whole entry): as above
smiles,measurement,setting,value
CSCC[C@H](N)C(=O)O [methionine],"CP13 tau phosphorylation, ratio methionine-enriched / not enriched",tau; diets with folate,1.1
same,"PHF1 tau phosphorylation, ratio methionine-enriched / not enriched",tau; diets with folate,1.2
same,"TG5 total tau, ratio methionine-enriched / not enriched",tau; diets with folate,1.2
same,"CP13 tau phosphorylation, ratio methionine-enriched / not enriched",tau; diets without folate,1
same,"PHF1 tau phosphorylation, ratio methionine-enriched / not enriched",tau; diets without folate,0.9
same,"TG5 total tau, ratio methionine-enriched / not enriched",tau; diets without folate,1
same,effect on tau hyperphosphorylation,tau; [4],did not have a sizeable significant effect
same,"Hcy, total plasma homocysteine, ratio methionine-enriched / not enriched",[1]; diets with folate,1.9
same,"SAH in brain homogenates, ratio methionine-enriched / not enriched",[1]; diets with folate,0.8
same,"SAM in brain homogenates, ratio methionine-enriched / not enriched",[1]; diets with folate,0.9
same,"Hcy, total plasma homocysteine, ratio methionine-enriched / not enriched",[1]; diets without folate,0.9
same,"SAH in brain homogenates, ratio methionine-enriched / not enriched",[1]; diets without folate,1.1
same,"SAM in brain homogenates, ratio methionine-enriched / not enriched",[1]; diets without folate,1.2
same,change in plasma Hcy,[1]; excess methionine added to the normal diet,approximately two-fold increase
same,effect on methylation metabolism,[1]; [4],did not have a sizeable significant effect
N[C@@H](CCS)C(=O)O [homocysteine],Total PP2A (antibody 6A3),[2],remained much the same
same,level of methylated PP2A (antibody 4D9),[2],declined dramatically
C=C1[C@@H](O)[C@@H]2O[C@]3(CC[C@H](/C=C/[C@@H](C)[C@@H]4CC(C)=C[C@@]5(O[C@H](C[C@@](C)(O)C(=O)O)CC[C@H]5O)O4)O3)CC[C@H]2O[C@@H]1[C@@H](O)C[C@H](C)[C@H]1O[C@@]2(CCCCO2)CC[C@H]1C [Okadaic acid],effect on tau and microtubules in cultured human neurons,cultured human neurons,"tau hyperphosphorylation, reduced binding of tau to MTs, MT depolymerization, and axonal degeneration"
same,inhibition of PP2A phosphatase activity,[3],potent inhibitor
same,inhibition of methylation of PP2A,methylation of PP2A,potent inhibitor
